pEC50, pIC50: −log10 of the molar value.
Tests used:
Progesterone receptor [1] = biological target: T1, Progesterone receptor (Homo sapiens, UniProt P06401); assay: Inhibition of progesterone receptor in human T47D cells assessed as progesteron-induced alkaline phosphatase activity; format: cell-based
T1 sequence (P06401 whole entry): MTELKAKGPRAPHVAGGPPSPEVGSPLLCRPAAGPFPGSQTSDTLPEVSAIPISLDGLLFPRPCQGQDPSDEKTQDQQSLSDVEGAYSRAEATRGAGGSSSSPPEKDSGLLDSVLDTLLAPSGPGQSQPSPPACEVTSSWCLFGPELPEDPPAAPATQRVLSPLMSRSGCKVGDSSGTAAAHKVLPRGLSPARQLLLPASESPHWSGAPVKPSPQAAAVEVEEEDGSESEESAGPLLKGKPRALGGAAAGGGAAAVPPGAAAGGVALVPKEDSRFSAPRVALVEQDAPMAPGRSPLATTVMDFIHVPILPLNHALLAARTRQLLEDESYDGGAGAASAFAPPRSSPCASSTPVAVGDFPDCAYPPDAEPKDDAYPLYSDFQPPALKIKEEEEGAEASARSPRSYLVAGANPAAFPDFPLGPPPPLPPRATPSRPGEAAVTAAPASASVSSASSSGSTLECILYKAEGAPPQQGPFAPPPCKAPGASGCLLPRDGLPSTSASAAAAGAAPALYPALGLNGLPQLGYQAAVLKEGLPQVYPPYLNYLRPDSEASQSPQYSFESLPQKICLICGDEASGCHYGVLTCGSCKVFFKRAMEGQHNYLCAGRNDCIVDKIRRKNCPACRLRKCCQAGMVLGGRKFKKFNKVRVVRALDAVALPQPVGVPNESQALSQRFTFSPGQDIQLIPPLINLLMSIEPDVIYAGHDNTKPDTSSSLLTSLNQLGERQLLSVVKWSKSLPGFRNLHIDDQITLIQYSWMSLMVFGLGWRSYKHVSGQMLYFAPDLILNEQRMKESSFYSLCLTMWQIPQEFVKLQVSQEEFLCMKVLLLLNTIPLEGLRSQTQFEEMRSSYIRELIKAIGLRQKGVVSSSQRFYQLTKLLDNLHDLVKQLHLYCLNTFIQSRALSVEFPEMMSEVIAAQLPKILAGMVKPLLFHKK

Progesterone receptor [2] = biological target: T1, Progesterone receptor; assay: Agonist activity at progesterone receptor in human T47D cells assessed as alkaline phosphatase activity; format: functional, cell-based

Structure (SMILES) | pIC50 (Progesterone receptor [1]) | pEC50 (Progesterone receptor [2])
Cc1cccc(-c2ccc3c(c2)C(C)(C)C/C3=N\O)c1 | 6.50 | –
CC1(C)C/C(=N\O)c2ccc(-c3cccc(C#N)c3)cc21 | 6.50 | –
CC1C/C(=N/O)c2ccc(-c3ccc(C#N)n3C)cc21 (configuration not stated) | 7.19 | < 5.52
Cn1c(C#N)ccc1-c1ccc2c(c1)CCC2=O | 7.47 | < 5.52
C#CCC1(O)CC(C)(C)c2cc(-c3ccc(C#N)n3C)ccc21 (configuration not stated) | 8.52 | < 5.52
Cn1c(C#N)ccc1-c1ccc2c(c1)CC/C2=N/O | 6.88 | < 5.52
CC1CC(O)c2ccc(-c3ccc(C#N)n3C)cc21 (configuration not stated) | 7.74 | < 5.52
Cn1c(C#N)ccc1-c1ccc2c(c1)C(C)(C)CC2(C)O (configuration not stated) | – | 9.00
Cn1c(C#N)ccc1-c1ccc2c(c1)C(C)(C)CC2O (configuration not stated) | – | 7.72
CC1(C)CC(=O)c2ccc(-c3cccc(C#N)c3)cc21 | 6.71 | –
CC1(C)C/C(=N\O)c2ccc(-c3cccc(Cl)c3)cc21 | 6.31 | –
CC1(C)CC(=O)c2ccc(-c3ccc(Cl)c(Cl)c3)cc21 | 7.10 | –
Cn1c(C#N)ccc1-c1ccc2c(c1)CCC2O (configuration not stated) | 8.00 | < 5.52
Cn1c(C#N)ccc1-c1ccc2c(c1)C(C)(C)C/C2=N/O | 7.85 | < 5.52
CCC1(O)CC(C)(C)c2cc(-c3ccc(C#N)n3C)ccc21 (configuration not stated) | – | 8.70

Source: ChEMBL document CHEMBL1154669, “5-Aryl indanones and derivatives as non-steroidal progesterone receptor modulators” (Bioorg Med Chem Lett, 2009)
